According to ChEMBL document CHEMBL1124256, “Enantiomeric effects of homologues of disoxaril on the inhibitory activity against human rhinovirus-14” (1988):
Converted amounts (≈) assume the structure as drawn.

Test system: Human rhinovirus sp.
Test: In vitro minimum inhibitory concentration against human rhinovirus-14 (HRV-14)
Assay type: functional

Going from Cc1cc(CCCCCCCOc2ccc(C3=N[C@@H](C)CO3)cc2)on1 to Cc1cc(CCCCCCCOc2ccc(C3=N[C@H](C)CO3)cc2)on1, the MIC rises from 0.02 µg/mL (≈ 0.0561 µM) to 0.2 µg/mL (≈ 0.561 µM) (10-fold).

Compared with CC[C@@H]1COC(c2ccc(OCCCCCCCc3cc(C)no3)cc2)=N1, CC[C@H]1COC(c2ccc(OCCCCCCCc3cc(C)no3)cc2)=N1 is 6-fold lower in MIC: 0.06 µg/mL (≈ 0.162 µM) for the first, 0.01 µg/mL (≈ 0.027 µM) for the second.

Going from CCCC[C@H]1COC(c2ccc(OCCCCCCCc3cc(C)no3)cc2)=N1 to CCCC[C@@H]1COC(c2ccc(OCCCCCCCc3cc(C)no3)cc2)=N1, the MIC rises from 0.06 µg/mL (≈ 0.151 µM) to 0.52 µg/mL (≈ 1.3 µM) (8.7-fold).

First: Cc1cc(CCCCCCCOc2ccc(C3=N[C@@H](C(C)C)CO3)cc2)on1
Second: Cc1cc(CCCCCCCOc2ccc(C3=N[C@H](C(C)C)CO3)cc2)on1
The MIC of the first is 4.3-fold lower: 0.03 µg/mL (≈ 0.078 µM) for the first, 0.13 µg/mL (≈ 0.338 µM) for the second.

First: CCC[C@H]1COC(c2ccc(OCCCCCCCc3cc(C)no3)cc2)=N1
Second: CCC[C@@H]1COC(c2ccc(OCCCCCCCc3cc(C)no3)cc2)=N1
The MIC of the first is 7-fold lower: 0.01 µg/mL (≈ 0.026 µM) for the first, 0.07 µg/mL (≈ 0.182 µM) for the second.

First: Cc1cc(CCCCCCCOc2ccc(C3=NC(C)CO3)cc2)on1 (stereo not drawn)
Second: Cc1cc(CCCCCCCOc2ccc(C3=NCCO3)cc2)on1 [DISOXARIL]
The MIC of the first is 4.7-fold lower: 0.03 µg/mL (≈ 0.0842 µM) for the first, 0.14 µg/mL (≈ 0.409 µM) for the second.

Cc1cc(CCCCCCCOc2ccc(C3=NC(C)(C)CO3)cc2)on1 was tested, and the MIC was 0.03 µg/mL (≈ 0.081 µM).
